Measurements: publication PMC9405596, “Evaluation of the Anti-Leishmania mexicana and -Trypanosoma brucei Activity and Mode of Action of 4,4′-(Arylmethylene)bis(3-methyl-1-phenyl-1H-pyrazol-5-ol)” (Biomedicines, 2022)
Like-named read-outs stand apart in the source and are kept apart here.

What was measured:
[1] = MTT cytotoxicity assay, HepG2; type: cell-based; settings: human, HepG2 cells, HepG2, 72 h, read-out: CC50 HepG2 Hepatocytes
Protocol: (§1) Murine macrophages (cell line RAW 264.7, ATCC® TIB-71™) were grown in Dulbecco’s Modified Eagle Medium (DMEM) (Gibco, Invitrogen, Waltham, MA, USA) supplemented with 10% fetal bovine serum (FBS) (Eurobio) and 100 IU/mL penicillin + 100 µg/mL streptomycin (Gibco), at 37 °C, in an atmosphere containing 5% CO2. Human hepatocyte cell line HepG2 (ATCC® HB-8065™) was grown in MEM (Gibco, Invitrogen) supplemented with 10% FBS (Gibco, Invitrogen), 1% NEAA (Gibco, Invitrogen), and 1% L-glutamine (Gibco, Invitrogen). The medium was renewed twice a week. For both cell lines, the viability was determined using the MTT assay as described before for leishmanicidal activity assessment, with some variations. Here, 5 × 10^4 cells/well in a final volume of 100 µL were seeded into a 96-well plate, in triplicate for RAW macrophages and in duplicate for HepG2. Saponin (2.4 mg/mL) and untreated cells were used as positive control and negative control, respectively. Compounds were dissolved in DMSO to obtain different serial concentrations (1.56 to 800 µM) for RAW macrophages and 100–0.001 µM for HepG2. The final concentration of DMSO in each well was 0.5%. After exposure to compounds for 48 h and 72 h for RAW and HepG2 cells, respectively, 10 µL/well of MTT (5 mg/mL in PBS) was added, incubated at 37 °C for 2 h in darkness, and cells were pelleted via centrifugation at 4400 rpm for 10 min. The medium was removed, and 100 µL/well of DMSO was added to dissolve formazan. The absorbance at 570 and 630 nm was recorded following the same procedure as with parasites.

[2] = MTT cytotoxicity assay, murine macrophages; type: cell-based; settings: mouse, RAW 264.7 macrophage cells, RAW 264.7, 48 h
Protocol: as §1

[3] = test system: L. mexicana promastigotes; experiment: MTT viability assay against L. mexicana promastigotes; type: cell-based, Leishmania mexicana; settings: for L. mexicana Promastigote SI vs. Hepatocytes: CC50 HepG2 hepatocytes/IC50 L. mexicana; for IC50: 48 h; for L. mexicana Promastigote SI vs. Macrophage: CC50 RAW macrophages/IC50 L. mexicana
Protocol: The leishmanicidal activity against promastigotes from L. mexicana was evaluated by measuring parasites’ mitochondrial activity using the MTT (Thiazolyl Blue Tetrazolium Bromide) colorimetric assay as described previously. […] The medium was renewed every third day and subcultures were prepared when parasite density reached 1 × 10^7 parasites/mL. A Neubauer chamber was used to determine parasite density.

[4] = parameters: method as in PMID 34082794; settings: ref [17]; cited from earlier work
[5] = test system: bloodstream form of T. b. brucei (strain 427); experiment: Bioluminescence viability assay against bloodstream T. b. brucei expressing luciferase; settings: for T. brucei SI vs. Hepatocytes: CC50 HepG2 hepatocytes/IC50 T. brucei; for T. brucei bloodstream SI vs. Macrophages: CC50 RAW macrophages/IC50 T. brucei; for activity at 10 µM / IC50: 24 h; for activity at 10 µM: read-out: T. brucei bloodstream % Growth (10 µM), 10 µM, 24 h; for SI against T. brucei, range over both mammalian cell lines: murine macrophages and HepG2 hepatocytes; for anti-T. brucei activity in preliminary screening, in words: 10 µM
[6] = test system: recombinant roGFP2 biosensor; experiment: In vitro fluorescence assay with recombinant roGFP2 biosensor; type: biochemical; settings: 50 µM compound, 5 µM biosensor, 1 h
Protocol: The His-tagged recombinant form of a roGFP2 biosensor was expressed and purified from Escherichia coli (strain C41). An overnight pre-culture (LB medium + 50 µg/mL kanamycin, 220 rpm at 37 °C) of transformed cells was diluted 1:100 in fresh 2YT medium with 50 µg/mL kanamycin, and grown at 220 rpm and 37 °C until reaching an OD600 of ~0.8. At this time point, the culture was supplemented with IPTG (end concentration 1 mM) and the incubation was extended overnight at 100 rpm, 20 °C. Cells were harvested by centrifugation at 5000× g for 10 min at 4 °C and the cell pellet was resuspended in Buffer A (50 mM sodium phosphate, pH 8.0, 300 mM NaCl) at a ratio of 5 mL buffer per gram of pellet. Lysozyme (50 mg/mL) and DNAse (15 U/mL; Roche) were added to the cell homogenate and the suspension was incubated for 1 h on ice. Next, cells were sonicated for 2 min (30 s on/off pulses at an amplitude of 40%) and the lysate was centrifuged twice at 23,000× g, 4 °C, for 1 h. The clarified supernatant was filtered (0.4 µm filter) and applied to a 5 mL HisTrap column (GE Healthcare, Chicago, IL, USA) pre-equilibrated with Buffer A. The column was washed with 15 mL of Buffer A and then with 15 mL of Buffer A + 20 mM Imidazole. The recombinant protein was eluted from the column with Buffer A + 500 mM Imidazole. The elution fractions containing the biosensor (optical observation) were pooled and buffer exchanged against Buffer A using a PD-10 column (G25-sepharose, GE Healthcare). In order to remove the His-tag, the recombinant protein was digested overnight (4 °C) using 4.5 mg/mL TEV protease in Buffer A containing 5 mM DTT and 2 mM EDTA. Finally, the digested sample was applied to a 5 mL HisTrap column pre-equilibrated with Buffer A, and the flow-through containing the un-tagged biosensor was collected. The purity of the recombinant biosensor was evaluated by SDS-PAGE, and the protein concentration estimated by measuring absorbance at 280 nm (ε^280 23.290 M^−1cm^−1) in a Nanodrop DS-11 FX device. Upon purification, the biosensor was obtained in an oxidized state, as assessed via spectrofluorimetry (see below).
For the fluorescence assays, the recombinant biosensor was used at a final concentration of 5 µM and compounds at 50 µM in Buffer A with DMSO (final concentration 1%). DTT was added at 10 mM for achieving full biosensor reduction. Fluorescence spectra ([…] and emission) were recorded using a Cary Eclipse equipment. […]

[7] = test system: hGrx1-roGFP2 redox biosensor in bloodstream T. brucei brucei; experiment: In-cell redox assay with hGrx1-roGFP2 biosensor (flow cytometry); settings: compound at its IC50, 1 h; for intracellular biosensor oxidation: relative to diamide (full oxidation) and DTT (reduction)
bloodstream T. b. brucei = experiment: Microscopic observation of cell motility; type: cell-based, Trypanosoma brucei brucei; settings: 0.9 µM, 24 h, vs vehicle-treated parasites
[8] = test system: Human hepatocyte cell line HepG2; settings: read-out: CC50 HepG2 Hepatocytes, ref [47]; cited from earlier work
[9] = Leishmania mexicana, read-out: L. mexicana Promastigote IC50, promastigotes, 48 h, MTT
[10] = Trypanosoma brucei, read-out: T. brucei bloodstream IC50, 24 h, bioluminescence
[11] = read-out: T. brucei bloodstream IC50, bioluminescence

SMILES | CC50 at 72 h [1] | CC50 at 48 h [2] | L. mexicana Promastigote SI vs. Hepatocytes [3] | IC50 [3, 9] | T. brucei SI vs. Hepatocytes [5] | T. brucei bloodstream SI vs. Macrophages [5] | activity at 10 µM ([5]; Trypanosoma brucei) | IC50 [5, 10] | direct oxidation of the reduced recombinant biosensor [6] | prevention of biosensor oxidation (oxidized form) [6] | L. mexicana Promastigote SI vs. Macrophage [3] | intracellular biosensor oxidation [7] | biosensor oxidation vs. DMSO [7] | further results
Cc1nn(-c2ccccc2)c(O)c1C(c1ccc(O)c(O)c1)c1c(C)nn(-c2ccccc2)c1O [Compound 2n] | > 100 µM | 70 ± 7 µM | >14.3 | 7 ± 1 µM | >9.8 | 7 | ≤ 50% | 10 µM |  |  |  |  |  | radical scavenging activity relative to ascorbic acid [4]: higher; IC50 [5, 11]: 10.2 ± 1.75 µM
Cc1nn(-c2ccccc2)c(O)c1C(c1cccc(C(F)(F)F)c1)c1c(C)nn(-c2ccccc2)c1O [Compound 2w, 4,4′-[(3-trifluoromethylphenyl)methylene]bis(3-methyl-1-phenyl-1H-pyrazol-5-ol)] | 26 ± 3 µM | 61 ± 4 µM | 6.5 |  | 2.9 | 6.8 | ≤ 50% | 9 µM | did not induce direct oxidation | 11–13% | 15.2 | 63% | 30% | IC50 [5, 11]: 8.9 ± 0.7 µM
Cc1nn(-c2ccccc2)c(O)c1C(c1ccc(O)cc1O)c1c(C)nn(-c2ccccc2)c1O [Compound 2y, 4,4′-[(2,4-dihydroxyphenyl)methylene]bis(3-methyl-1-phenyl-1H-pyrazol-5-ol)] | > 100 µM | 170 ± 1 µM |  | > 50 µM | >111 | 189 |  | 0.9 ± 0.2 µM |  |  |  |  |  | cell motility by microscopic observation (bloodstream T. b. brucei): did not reveal an impairment of cell motility
CC1CS(=O)(=O)CCN1/N=C/c1ccc([N+](=O)[O-])o1 (stereo not drawn) [Nifurtimox, reference compound] |  | > 100 µM |  |  | 13 |  |  | 3.5 µM |  |  |  |  |  | CC50 [8]: 45 ± 1 µM; SI against T. brucei, range over both mammalian cell lines [5]: 13–28.5
Cc1nn(-c2ccccc2)c(O)c1C(c1cc(C(F)(F)F)cc(C(F)(F)F)c1)c1c(C)nn(-c2ccccc2)c1O [Compound 2x, 4,4′-{[3,5-bis(trifluoromethyl)phenyl]methylene}bis(3-methyl-1-phenyl-1H-pyrazol-5-ol)] | 30 ± 2 µM | 34 ± 5 µM | 4.3 | ≤ 10 µM | 16 | 18 |  | 1.9 ± 0.9 µM | did not induce direct oxidation | 11–13% | 4.8 | 95% | 63% | IC50 ([3]; read-out: L. mexicana Promastigote IC50, promastigotes, MTT): 7 ± 2 µM; SI against T. brucei, range over both mammalian cell lines [5]: 11.6–18
CSc1ccc(C(c2c(C)nn(-c3ccccc3)c2O)c2c(C)nn(-c3ccccc3)c2O)cc1 [Compound 2u] | 21 ± 10 µM | 96 ± 27 µM | 0.7 | 30 ± 10 µM |  |  | > 100% |  |  |  | 3.2 |  |  | melting point: 209.1 to 211.3 °C; anti-T. brucei activity in preliminary screening, in words [5]: inactive
COc1cc(C(c2c(C)nn(-c3ccccc3)c2O)c2c(C)nn(-c3ccccc3)c2O)cc(OC)c1O [Compound 2m] | > 100 µM | 286 ± 51 µM | >4.3 | 23 ± 5 µM |  |  | > 100% |  |  |  | 12.4 |  |  | melting point: 208 to 209.5 °C; anti-T. brucei activity in preliminary screening, in words [5]: inactive
Cc1nn(-c2ccccc2)c(O)c1C(c1ccc(C(F)(F)F)cc1)c1c(C)nn(-c2ccccc2)c1O [Compound 2r] | 20 ± 4 µM | 54 ± 3 µM | 6.1 |  | 2.0 | 5.4 | ≤ 50% | 10 ± 3 µM | did not induce direct oxidation | 11–13% | 16.4 | 56% | 23% | radical scavenging activity relative to ascorbic acid [4]: higher
